Test results reported in patent publication US9302988B2, “Fluoromethyl-substituted pyrrole carboxamides” (GRÜNENTHAL GMBH, priority 2012, dated 2016).

Molecular target: T1, Human CaV2.2 channels (Homo sapiens, UniProt Q00975)
T1 construct: expressed in transfected cells
Test: Fluorescent assay for CaV2.2 channels using potassium depolarization to induce channel opening (FLIPR, Fluo-4)
Assay type: cell-based
Settings: 3 μM test compound, 30 mM KCl, HEK293 cells stably expressing human CaV2.2; read-out: %-Inhib (CaV2.2) @3 μM @30 mM KCl
Procedure, shortened: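 HEK293 cells stably co-expressing CaV2.2 with α2δ and β subunits plus Kir2.3 were Fluo-4 loaded, then preincubated 15 min at 25 °C with compound in 30 mM KCl buffer, pH 7.4. Depolarization was by adding buffer containing 210 mM KCl. Inhibition was taken from baseline-normalized peak fluorescence amplitude (ex 480/em 535 nm).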

T1 sequence (Q00975 whole entry): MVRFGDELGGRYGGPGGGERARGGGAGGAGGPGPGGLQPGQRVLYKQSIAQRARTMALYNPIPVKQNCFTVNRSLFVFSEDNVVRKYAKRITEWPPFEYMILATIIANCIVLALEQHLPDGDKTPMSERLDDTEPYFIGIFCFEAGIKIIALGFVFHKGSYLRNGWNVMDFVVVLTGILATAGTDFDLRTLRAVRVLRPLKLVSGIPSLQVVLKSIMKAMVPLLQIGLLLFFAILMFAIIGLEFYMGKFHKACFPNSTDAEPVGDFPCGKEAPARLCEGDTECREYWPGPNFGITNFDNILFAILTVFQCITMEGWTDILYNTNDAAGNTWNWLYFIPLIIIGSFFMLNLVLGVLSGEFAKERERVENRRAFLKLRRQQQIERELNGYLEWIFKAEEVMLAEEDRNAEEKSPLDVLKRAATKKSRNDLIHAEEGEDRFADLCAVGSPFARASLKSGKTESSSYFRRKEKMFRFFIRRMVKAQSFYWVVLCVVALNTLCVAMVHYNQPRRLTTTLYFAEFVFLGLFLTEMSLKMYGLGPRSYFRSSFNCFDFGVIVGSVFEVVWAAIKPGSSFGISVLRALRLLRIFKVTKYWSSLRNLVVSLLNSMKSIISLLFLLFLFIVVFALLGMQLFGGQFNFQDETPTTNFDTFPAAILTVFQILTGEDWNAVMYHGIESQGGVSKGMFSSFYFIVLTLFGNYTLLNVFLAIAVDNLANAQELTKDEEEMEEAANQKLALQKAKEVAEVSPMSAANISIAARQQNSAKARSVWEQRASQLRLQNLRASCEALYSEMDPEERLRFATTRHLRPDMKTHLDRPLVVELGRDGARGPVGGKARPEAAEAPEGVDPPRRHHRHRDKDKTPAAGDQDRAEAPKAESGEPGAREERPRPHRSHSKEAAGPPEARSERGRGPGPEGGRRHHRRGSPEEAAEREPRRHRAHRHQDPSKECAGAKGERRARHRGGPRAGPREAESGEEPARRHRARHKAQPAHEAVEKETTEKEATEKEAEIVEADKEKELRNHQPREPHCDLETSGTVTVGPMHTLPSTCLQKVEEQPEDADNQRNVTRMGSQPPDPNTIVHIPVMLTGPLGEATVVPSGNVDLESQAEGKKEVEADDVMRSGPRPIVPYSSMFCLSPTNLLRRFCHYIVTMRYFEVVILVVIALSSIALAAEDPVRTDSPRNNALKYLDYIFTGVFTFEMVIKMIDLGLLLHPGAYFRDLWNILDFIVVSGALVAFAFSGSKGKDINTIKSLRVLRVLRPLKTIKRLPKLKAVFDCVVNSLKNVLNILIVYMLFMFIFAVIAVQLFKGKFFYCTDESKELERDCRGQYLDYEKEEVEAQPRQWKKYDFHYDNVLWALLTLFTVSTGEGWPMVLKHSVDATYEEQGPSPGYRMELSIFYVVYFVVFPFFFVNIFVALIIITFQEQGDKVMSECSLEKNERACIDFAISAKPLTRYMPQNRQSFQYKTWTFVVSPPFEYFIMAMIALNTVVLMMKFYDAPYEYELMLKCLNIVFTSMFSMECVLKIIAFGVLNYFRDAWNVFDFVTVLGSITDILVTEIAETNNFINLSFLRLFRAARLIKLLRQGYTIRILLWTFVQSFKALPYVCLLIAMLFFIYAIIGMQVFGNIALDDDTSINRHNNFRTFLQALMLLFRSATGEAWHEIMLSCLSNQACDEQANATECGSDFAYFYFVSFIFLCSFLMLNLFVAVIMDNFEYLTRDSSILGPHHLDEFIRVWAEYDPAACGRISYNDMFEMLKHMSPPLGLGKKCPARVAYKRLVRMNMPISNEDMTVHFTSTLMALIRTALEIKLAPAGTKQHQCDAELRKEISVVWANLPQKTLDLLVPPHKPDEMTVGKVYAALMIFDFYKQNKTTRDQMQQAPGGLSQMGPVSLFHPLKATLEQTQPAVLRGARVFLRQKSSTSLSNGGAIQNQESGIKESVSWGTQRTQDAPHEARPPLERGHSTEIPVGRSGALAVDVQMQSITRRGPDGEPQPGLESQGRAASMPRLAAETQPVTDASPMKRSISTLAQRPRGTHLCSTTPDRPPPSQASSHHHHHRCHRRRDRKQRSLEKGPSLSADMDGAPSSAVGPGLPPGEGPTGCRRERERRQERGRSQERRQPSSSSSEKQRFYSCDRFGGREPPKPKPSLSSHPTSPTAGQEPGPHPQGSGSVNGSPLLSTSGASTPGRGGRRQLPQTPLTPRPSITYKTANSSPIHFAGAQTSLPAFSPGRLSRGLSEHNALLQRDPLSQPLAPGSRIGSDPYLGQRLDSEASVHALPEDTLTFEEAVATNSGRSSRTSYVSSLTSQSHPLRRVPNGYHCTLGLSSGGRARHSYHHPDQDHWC
T1 sequence (P54289 25-1103, further chain): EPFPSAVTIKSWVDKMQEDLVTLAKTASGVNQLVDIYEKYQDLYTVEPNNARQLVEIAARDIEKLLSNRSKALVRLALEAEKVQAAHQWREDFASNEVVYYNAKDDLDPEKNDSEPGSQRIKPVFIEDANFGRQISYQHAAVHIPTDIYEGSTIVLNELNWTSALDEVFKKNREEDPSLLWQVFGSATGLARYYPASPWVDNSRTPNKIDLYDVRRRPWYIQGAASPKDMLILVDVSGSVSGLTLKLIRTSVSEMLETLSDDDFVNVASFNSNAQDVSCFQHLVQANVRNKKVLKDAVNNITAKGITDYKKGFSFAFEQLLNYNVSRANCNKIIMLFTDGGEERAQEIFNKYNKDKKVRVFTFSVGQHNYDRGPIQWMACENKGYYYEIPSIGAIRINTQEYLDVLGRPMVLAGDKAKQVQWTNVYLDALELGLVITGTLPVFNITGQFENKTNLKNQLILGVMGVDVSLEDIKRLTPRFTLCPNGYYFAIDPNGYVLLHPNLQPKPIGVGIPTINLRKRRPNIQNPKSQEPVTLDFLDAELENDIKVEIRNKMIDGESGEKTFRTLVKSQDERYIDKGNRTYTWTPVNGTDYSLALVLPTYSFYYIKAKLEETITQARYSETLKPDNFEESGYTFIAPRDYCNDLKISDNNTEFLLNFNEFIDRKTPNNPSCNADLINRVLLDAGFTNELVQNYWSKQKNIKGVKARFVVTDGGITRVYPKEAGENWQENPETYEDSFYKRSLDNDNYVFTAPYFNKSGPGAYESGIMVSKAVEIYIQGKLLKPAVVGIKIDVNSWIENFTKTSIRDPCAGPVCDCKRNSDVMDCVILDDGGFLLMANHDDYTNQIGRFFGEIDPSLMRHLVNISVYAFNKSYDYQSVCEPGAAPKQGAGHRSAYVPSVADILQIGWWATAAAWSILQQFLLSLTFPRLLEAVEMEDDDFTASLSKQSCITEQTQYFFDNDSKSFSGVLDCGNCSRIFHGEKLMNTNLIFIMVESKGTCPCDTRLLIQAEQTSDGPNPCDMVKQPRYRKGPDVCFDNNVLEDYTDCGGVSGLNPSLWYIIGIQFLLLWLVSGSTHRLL
T1 sequence (P54284 whole entry, further chain): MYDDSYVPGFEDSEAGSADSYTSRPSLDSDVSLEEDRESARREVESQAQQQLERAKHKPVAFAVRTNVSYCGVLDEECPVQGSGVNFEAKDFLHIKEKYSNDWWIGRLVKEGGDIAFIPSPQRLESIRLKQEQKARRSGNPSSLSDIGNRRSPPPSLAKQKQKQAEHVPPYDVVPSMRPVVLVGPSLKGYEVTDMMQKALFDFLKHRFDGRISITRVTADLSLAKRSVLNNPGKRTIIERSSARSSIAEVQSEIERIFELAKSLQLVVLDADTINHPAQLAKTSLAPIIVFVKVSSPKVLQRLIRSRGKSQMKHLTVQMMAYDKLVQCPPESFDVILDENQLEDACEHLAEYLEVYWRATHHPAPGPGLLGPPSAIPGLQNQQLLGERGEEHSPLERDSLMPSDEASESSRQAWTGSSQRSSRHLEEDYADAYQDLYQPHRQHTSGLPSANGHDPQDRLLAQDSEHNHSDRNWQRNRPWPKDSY

| Compound | inhibition at 3 µM |
| --- | --- |
| CN(CC(C)(C)O)C(=O)c1c(-c2ccc(Cl)cc2)cc(C(F)(F)F)n1Cc1cccc(Cl)c1 [SC-70, 3-(4-Chlorophenyl)-1-[(3-chlorophenyl)-methyl]-N-(2-hydroxy-2-methyl-propyl)-N-methyl-5-(trifluoromethyl)-1H-pyrrole-2-carboxylic acid amide] | > 95% |
| Cc1c(-c2ccc(Cl)cc2)c(C(=O)N(C)CC(C)(C)C)n(Cc2ccccc2)c1C(F)F [SC-42, 1-Benzyl-3-(4-chlorophenyl)-5-(difluoro-methyl)-N-(2,2-dimethyl-propyl)-N,4-dimethyl-1H-pyrrole-2-carboxylic acid amide] | > 95% |
| CN(C(=O)c1c(-c2ccc(Cl)cc2)cc(C(F)(F)F)n1Cc1ccccc1)C1CCOCC1 [SC-73, 1-Benzyl-3-(4-chlorophenyl)-N-methyl-N-tetrahydro-pyran-4-yl-5-(trifluoromethyl)-1H-pyrrole-2-carboxylic acid amide] | > 95% |
| Cc1c(-c2ccc(Cl)cc2)c(C(=O)NC2CC2)n(Cc2ccccc2)c1C(F)(F)F [SC-35, 1-Benzyl-3-(4-chlorophenyl)-N-cyclopropyl-4-methyl-5-(trifluoromethyl)-1H-pyrrole-2-carboxylic acid amide] | 75 to 95% |
| Cc1c(-c2ccc(C(F)(F)F)cc2)c(C(=O)N(C)CCS(C)(=O)=O)n(Cc2ccccc2)c1C(F)(F)F [SC-228, 1-Benzyl-N,4-dimethyl-N-(2-methylsulfonyl-ethyl)-5-(trifluoromethyl)-3-[4-(trifluoromethyl)-phenyl]-1H-pyrrole-2-carboxylic acid amide] | 75 to 95% |
| CC(C)(CO)CNC(=O)c1c(-c2ccc(Cl)cc2)cc(C(F)(F)F)n1Cc1ccccc1 [SC-177, 1-Benzyl-3-(4-chlorophenyl)-N-(3-hydroxy-2,2-dimethyl-propyl)-5-(trifluoromethyl)-1H-pyrrole-2-carboxylic acid amide] | > 95% |
| Cc1c(-c2ccc(Cl)cc2)c(C(=O)N(C)CC(C)(CO)CO)n(Cc2ccccc2)c1C(F)(F)F [SC-125, 1-Benzyl-3-(4-chlorophenyl)-N-[3-hydroxy-2-(hydroxymethyl)-2-methyl-propyl]-N,4-dimethyl-5-(trifluoromethyl)-1H-pyrrole-2-carboxylic acid amide] | > 95% |
| Cc1c(-c2ccc(OC(F)(F)F)cc2)c(C(=O)N2CC(F)(F)C2)n(Cc2ccccc2)c1C(F)(F)F [SC-97, [1-Benzyl-4-methyl-5-(trifluoromethyl)-3-[4-(trifluoromethyloxy)-phenyl]-1H-pyrrol-2-yl]-(3,3-difluoro-azetidin-1-yl)-methanone] | 40 to 75% |
| O=C1CN(C(=O)c2c(-c3ccc(Cl)cc3F)cc(C(F)(F)F)n2Cc2ccccc2)CCN1 [SC-89, 4-[1-Benzyl-3-(4-chloro-2-fluoro-phenyl)-5-(trifluoromethyl)-1H-pyrrole-2-carbonyl]-piperazin-2-one] | 75 to 95% |
| Cc1c(-c2ccc(Cl)cc2F)c(C(=O)N(C)CC2CCCO2)n(Cc2ccccc2)c1C(F)(F)F (stereo not drawn) [SC-165, 1-Benzyl-3-(4-chloro-2-fluoro-phenyl)-N,4-dimethyl-N-(tetrahydro-furan-2-yl-methyl)-5-(trifluoromethyl)-1H-pyrrole-2-carboxylic acid amide] | > 95% |
| Cc1c(-c2ccc(F)c(Cl)c2)c(C(=O)N2CC(O)C2)n(Cc2ccccc2)c1C(F)(F)F [SC-255, [1-Benzyl-3-(3-chloro-4-fluoro-phenyl)-4-methyl-5-(trifluoromethyl)-1H-pyrrol-2-yl]-(3-hydroxy-azetidin-1-yl)-methanone] | 40 to 75% |
| Cc1c(-c2ccc(OC(F)(F)F)cc2)c(C(=O)N(C)CC(C)(C)CO)n(Cc2ccccc2)c1C(F)(F)F [SC-235, 1-Benzyl-N-(3-hydroxy-2,2-dimethyl-propyl)-N,4-dimethyl-5-(trifluoromethyl)-3-[4-(trifluoromethyloxy)-phenyl]-1H-pyrrole-2-carboxylic acid amide] | 75 to 95% |
